US5519018A, “Substituted phenols and their use for the treatment of disorders caused by cell proliferation” (Behringwerke Aktiengesellschaft, priority 1992, dated 1996)
Read-outs that look alike come from different tables or passages of the source.

Legend:
[1] = system: cAMP-dependent protein kinase (PKA); experiment: Test for 3',5'-cAMP-dependent protein kinase inhibition (PKA catalytic subunit, Kemptide substrate); format: biochemical; conditions: 40 μM ATP, 15' at 30° C.
Method: Test for 3',5'-cAMP-dependent protein kinase inhibition
The catalytic subunit of the cAMP-dependent protein kinase (PKA) (Sigma) was reconstituted as described by Sigma (Sigma Chemical Co., St. Louis, Mo. USA). The enzyme activity was measured using Kemptide (Sigma) (Leu-Arg-Arg-Ala-Ser-Leu-Gly) as a substrate. […] The reaction was initiated by addition of gamma-^32 P ATP (40 μM) After 15'at 30° C., an aliquot part was added to p81 ion exchanger (2×2 cm; Whatman Paper Ltd., Great Britain), immersed in 75 mM H3 PO4, washed, dried, and the incorporation of ^32 P was determined by means of a liquid scintillation counter.

hela cells = experiment: Test for inhibition of EGF-stimulated proliferation of tumor cells (hela, MTT); format: cell-based; conditions: 65 h; for inhibition at 5 µg/mL / inhibition at 25 µg/mL / inhibition at 1 µg/mL / inhibition at 0.2 µg/mL: Homo sapiens; for inhibition at 5 µg/mL: read-out: EGF stimulation % inhibition at 5 μg/ml; for inhibition at 25 µg/mL: read-out: EGF stimulation % inhibition at 25 μg/ml; for inhibition at 1 µg/mL: read-out: EGF stimulation % inhibition at 1 μg/ml; for inhibition at 0.2 µg/mL: read-out: EGF stimulation % inhibition at 0.2 μg/ml
Method: Test for inhibition of EGF- or bFGF-stimulated proliferation of tumor cells
2×10^3 hela cells per well were inoculated into a 96-well microtiter plate (in RPMI+1% FCS ). After 24 h, the medium was changed to RPMI+0.5% FCS and various concentrations of the test substance±EGF (0.1 nM)/bFGF (1 ng/ml) were added. Each group consisted of 4 wells; the control was only incubated±growth factor. After 65 h, 50 μof MTT (2.5 mg/ml in PBS) were added and the supernatant was removed after 7 h. The colored substance formed by the living cells was dissolved by addition of 100 μl of DMSO/well. The absorption was measured at 492 nm for each well with the aid of a 340 CC Multiscan photometer (Flow).
The mean value is formed from the 4 wells of a group and the absorption difference between the controls± growth factor (A) and between the groups with test substance± growth factor (B) is determined.

[2] = target: T1, EGF receptor tyrosine kinase (EGFRTK) (Homo sapiens, UniProt P00533); experiment: biochemical
T1 construct: This cell line expresses a large number of EGF receptors which have tyrosine kinase activity on the cell surface; endogenous in cells; host or cells: A 431 (ATCC CRL 1555), membrane preparation
Method: Test for EGF receptor tyrosine kinase inhibition
This cell line expresses a large number of EGF receptors which have tyrosine kinase activity on the cell surface. The cells were cultured almost to confluence, washed with PBS (phosphate buffered saline, pH 7.2), scraped off the culture flask and incubated at 4° C. for 1 h, subjected to 20 strokes in a Potter and centrifuged at 1000 g for 30'. The supernatant was centrifuged at 20000 g for a further 20 min and the pellet was taken up in 100 μl per 1×10^6 cells as the membrane preparation.
The tyrosine kinase activity of the EGF receptor (EGFRTK) was measured using poly(Glu, Ala, Tyr), 6:3:1, as the substrate. […] After 15'at 30° C., the substrate was precipitated with 10% TCA (trichloroacetic acid), filtered on a millititer filtration plate (Millipore Corporation, Massachusetts, USA), washed and dried. The incorporation of ^32 P was determined by means of a liquid scintillation counter.

[3] = A 431 membranes, 1000 nM EGF, 32 μM ATP, 15' at 30° C., max. 51 μg/ml, read-out: EGFRTK IC50 (converted)
[4] = 5 μg/ml, hela cells, EGF 0.1 nM, tox = toxic
[5] = 1 μg/ml, hela cells, EGF 0.1 nM, tox = toxic
[6] = 25 μg/ml, hela cells, EGF 0.1 nM, tox = toxic

T1 sequence (P00533 25-1210): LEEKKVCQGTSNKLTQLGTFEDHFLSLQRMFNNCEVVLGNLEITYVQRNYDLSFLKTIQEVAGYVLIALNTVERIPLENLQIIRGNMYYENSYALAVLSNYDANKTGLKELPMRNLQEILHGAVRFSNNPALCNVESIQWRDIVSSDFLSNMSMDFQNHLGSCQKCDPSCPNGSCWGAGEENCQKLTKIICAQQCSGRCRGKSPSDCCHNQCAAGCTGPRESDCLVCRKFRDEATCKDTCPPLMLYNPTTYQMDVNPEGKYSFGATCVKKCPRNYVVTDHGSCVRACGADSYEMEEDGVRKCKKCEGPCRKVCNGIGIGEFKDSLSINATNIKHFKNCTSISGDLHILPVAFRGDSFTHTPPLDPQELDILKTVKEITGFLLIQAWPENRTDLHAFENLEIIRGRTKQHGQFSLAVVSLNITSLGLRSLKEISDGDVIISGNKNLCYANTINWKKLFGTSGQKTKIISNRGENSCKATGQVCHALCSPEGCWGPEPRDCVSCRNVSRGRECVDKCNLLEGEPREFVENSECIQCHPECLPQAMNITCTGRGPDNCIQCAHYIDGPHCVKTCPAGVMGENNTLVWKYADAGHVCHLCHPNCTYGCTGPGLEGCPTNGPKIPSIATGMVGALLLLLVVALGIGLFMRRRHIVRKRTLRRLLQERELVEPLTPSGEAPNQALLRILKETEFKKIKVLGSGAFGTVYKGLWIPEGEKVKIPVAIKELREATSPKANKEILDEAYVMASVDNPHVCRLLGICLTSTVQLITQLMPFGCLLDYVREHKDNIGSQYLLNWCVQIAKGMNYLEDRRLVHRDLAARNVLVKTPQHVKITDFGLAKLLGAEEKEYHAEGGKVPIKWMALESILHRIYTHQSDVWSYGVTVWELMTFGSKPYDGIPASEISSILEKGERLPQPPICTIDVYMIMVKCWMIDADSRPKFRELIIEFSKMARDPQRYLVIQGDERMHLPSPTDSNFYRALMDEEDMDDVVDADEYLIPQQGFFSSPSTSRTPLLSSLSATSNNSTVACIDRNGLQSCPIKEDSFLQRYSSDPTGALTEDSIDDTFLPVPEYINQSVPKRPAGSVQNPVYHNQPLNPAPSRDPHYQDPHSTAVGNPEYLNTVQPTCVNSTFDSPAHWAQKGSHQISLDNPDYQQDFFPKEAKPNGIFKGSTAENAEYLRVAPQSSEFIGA

Row | PKA % inhib. at 40 μg/ml [1] | IC50 [2, 3] | SMILES | EGF stimulation % inhibition at 25 μg/ml (hela cells; [6]) | inhibition at 5 µg/mL (hela cells; [4]) | also measured
1 |  | 2.79 µM | O=C1C=CC(=O)c2cc3ccccc3cc21 [1,4-Anthraquinone] |  |  | EGF stimulation % inhibition at 5 μg/ml (hela cells; [4]): tox; inhibition at 1 µg/mL (hela cells; [5]): 33%
2 | 71% | 4.64 µM | Cc1c(O)ccc(O)c1C [2,3-Dimethylhydroquinone] | tox | 17% | 
3 |  | 55.1 µM | Oc1ccc(N=Cc2cc(O)ccc2O)cc1 [2,5-Dihydroxy-N-(4'-hydroxyphenyl)benzaldimine] | tox | 39% | 
4 |  | 89.3 µM | Oc1ccc(O)c(C=Nc2ccccc2)c1 [2,5-Dihydroxy-N-phenylbenzaldimine] | tox | 24% | 
5 | 46% | 8.86 µM | Cc1cc(O)ccc1O [2-Methylhydroquinone] |  | 66% | inhibition at 1 µg/mL (hela cells; [5]): 21%
6 | 25% | 5.53 µM | Oc1ccc(O)c(-c2ccccc2)c1 [2-Phenylhydroquinone] |  | 66% | inhibition at 1 µg/mL (hela cells; [5]): 11%
7 | 0% | 77.9 µM | O=C(O)c1cccc(N=Cc2cc(O)ccc2O)c1 [3-[-(2',5'-Dihydroxybenzylidene)amino]benzoic acid] | tox | 44% | 
8 | 61% | 17.8 µM | O=C(O)c1ccc(NCc2cc(O)ccc2O)cc1 [4-[N-(2',5'-Dihydroxybenzyl)amino]benzoic acid] | tox | 36% | 
9 | 0% | 27.3 µM | O=C(O)c1cc(N=Cc2cc(O)ccc2O)ccc1O [5-[N-(2',5'-Dihydroxybenzylidene)amino]-2-hydroxybenzoic acid] | tox | 51% | 
10 | 0% | 67.5 µM | O=C(O)c1ccc(N=Cc2cc(O)ccc2O)cc1 [Ex. 1, 4-[N-(2',5'-Dihydroxybenzylidene)amino]benzoic acid] | tox | 48% | 
11 | 0% | 13.1 µM | CN=Cc1cc(O)ccc1O [Ex. 2, 2,5-Dihydroxy-N-methylbenzaldimine] | tox | 21% | 
12 | 0% | 7.48 µM | Oc1ccc(O)c(C=NCc2ccccc2)c1 [Ex. 3, N-Benzyl-2,5-dihydroxybenzaldimine] | tox | 28% | 
13 | 63% | 7.66 µM | CN(C)N=Cc1cc(O)ccc1O [Ex. 4, 2,5-Dihydroxy-N,N-dimethylbenzaldehyde hydrazone] | tox | 46% | 
14 | 0% | 95.6 µM | CCCCCCN=Cc1cc(O)ccc1O [Ex. 6, N-Hexyl-2,5-dihydroxybenzaldimine] | tox | 18% | 
15 | 0% | 74.2 µM | CCN=Cc1cc(O)ccc1O [Ex. 7, N-Ethyl-2,5-hydroxybenzaldimine] | tox | 28% | 
16 | 0% | 46.3 µM | CC(C)N=Cc1cc(O)ccc1O [Ex. 8, 2,5-Dihydroxy-N-isopropylbenzaldimine] | tox | 28% | 
17 | 0% | 47.7 µM | Oc1ccc(O)c(C=NN2CCCCC2)c1 [Ex. 10, 2,5-Dihydroxy-N-piperidinobenzaldimine] |  |  | 
18 | 0% | 12.5 µM | Oc1ccc(O)c(C=NN2CCOCC2)c1 [Ex. 11, 2,5-Dihydroxy-N-morpholinobenzaldimine] | tox | 17% | 
19 | 0% | 2.38 µM | CN1CCN(N=Cc2cc(O)ccc2O)CC1 [Ex. 12, 2,5-Dihydroxy-N-(4'-methylpiperazino)benzaldimine] | tox | 21% | 
20 |  | 145 to 217 µM | O=Cc1cc(O)ccc1O [Gentisaldehyde] |  | 16% | inhibition at 1 µg/mL (hela cells; [5]): 0%
21 | 0% | 150 µM | Cc1cc(O)c2ccccc2c1O [Menadiol] |  |  | 
22 | 61% | 44.7 µM | Oc1ccc(O)c(C=NC2CCCCC2)c1 [N-Cyclohexyl-2,5-dihydroxybenzaldimine] |  | 39% | inhibition at 25 µg/mL (hela cells; [6]): 64%
23 | 0% | 17.4 µM | Oc1ccc(O)c(C=NN2CCCCCC2)c1 [N-Homopiperidino-2,5-dihydroxybenzaldimine] |  |  | EGF stimulation % inhibition at 5 μg/ml (hela cells; [4]): tox
24 |  |  | O=C1C=CC(=O)c2ccccc21 [Naphthoquinone] |  |  | inhibition at 0.2 µg/mL (hela cells; 0.2 μg/ml, hela cells, EGF 0.1 nM): 11%; IC50 [2]: 1.26 µM

Row | SMILES | PKA % inhib. at 40 μg/ml [1] | IC50 [2, 3] | EGF stimulation % inhibition at 25 μg/ml (hela cells; [6]) | inhibition at 5 µg/mL (hela cells; [4]) | also measured
25 | O=S(=O)([O-])c1cc(O)ccc1O.[K+] | 1% | 8.06 µM |  |  | inhibition at 5 µg/mL (hela cells; HeLa): 6%; inhibition at 25 µg/mL (hela cells; HeLa): 14%
26 | Oc1ccc(O)c(O)c1 [1,2,4-Trihydroxybenzene] | 0% | 190 µM |  |  | EGF stimulation % inhibition at 5 μg/ml (hela cells; [4]): tox; inhibition at 1 µg/mL (hela cells; HeLa): 5%
27 | Oc1ccc(O)c2ccccc12 [1,4-Naphthodiol] | 76% |  |  |  | EGF stimulation % inhibition at 1 μg/ml (hela cells; [5]): tox; inhibition at 0.2 µg/mL (hela cells; HeLa): 29%; IC50 [2]: 9.36 µM
28 | O=C1C=CC(=O)C(Cl)=C1 [2-Chlorobenzoquinone] | 29% |  | tox |  | inhibition at 5 µg/mL (hela cells; HeLa): 29%; IC50 [2]: 9.68 µM
29 | Oc1ccc(O)c(Cl)c1 [2-Chlorohydroquinone] | 0% |  | tox | 46% | IC50 [2]: 13.1 µM
30 | CC(C)(C)c1cc(O)ccc1O [2-tert-Butylhydroquinone] | 22% | 5.72 µM |  |  | inhibition at 1 µg/mL (hela cells; HeLa): 21%; inhibition at 5 µg/mL (hela cells; HeLa): 52%
31 | O=C1C=CC(=O)C=C1 [Benzoquinone] | 45% |  |  | 55% | inhibition at 1 µg/mL (hela cells; [5]): 36%; IC50 [2]: 0.463 µM
32 | COC(=O)[C@H](Cc1c[nH]cn1)N=Cc1cc(O)ccc1O [Ex. 5, (S)-α-N-(2,5-Dihydroxybenzylidene)histidine methyl ester] | 0% |  |  |  | inhibition at 5 µg/mL (hela cells; HeLa): 10%; inhibition at 25 µg/mL (hela cells; HeLa): 44%; IC50 [2]: 43.7 µM
33 | Oc1ccc(O)cc1 [Hydroquinone] |  | 0.908 µM |  |  | inhibition at 1 µg/mL (hela cells; HeLa): 29%; inhibition at 5 µg/mL (hela cells; HeLa): 43%
34 | Oc1ccccc1O [Pyrocatechol] | 0% |  |  |  | inhibition at 0.2 µg/mL (hela cells; HeLa): 16%; inhibition at 1 µg/mL (hela cells; HeLa): 35%; IC50 [2]: 14.5 µM
35 | O=C1C=CC(=O)C=C1.Oc1ccc(O)cc1 [Quinhydrone] | 0% |  |  |  | EGF stimulation % inhibition at 1 μg/ml (hela cells; [5]): 12%; EGF stimulation % inhibition at 5 μg/ml (hela cells; [4]): 64%; EGFRTK IC50 ([2]; A 431 membranes, 1000 nM EGF, 32 μM ATP, 15' at 30° C., max. 51 μg/ml): 0.126 µg/mL
